Here are results for 1 compound from patent US20090233999A1, “COMPOSITIONS AND THERAPEUTIC METHODS INVOLVING ISOFLAVONES AND ANALOGUES THEREOF” (NOVOGEN RESEARCH PTY LTD, priority 1999, published 2009).

This test deals with IL-6. Briefly: UVB psoriasis model: immunohistochemical detection of IL-6. Format: in vivo, mouse. To be noted: 20 μM topical; 72 h; Skh:hr-1. The protocol:
Groups of three Skh:hr-1 mice were exposed to 3×MEdD of UVB radiation, with and without topical treatment with 20 μM Cpd. 18, and were euthanased before and at 24, 48, 72 and 96 h after irradiation, and mid-dorsal skin samples were taken for histological fixation. The samples were fixed for 6 h in Histochoice (Amresco Solon, Ohio), then processed overnight in an automated formalin-ethanol-based system (Tissue Tek VIP; Bayer Diagnostics, Ferntree Gully, Australia) and embedded into paraffin blocks. Sections of 4 μm were cut onto silane-coated slides, de-waxed and rehydrated using xylene followed by graded aqueous ethanol solutions to PBS. […]
The IL-6 was detected by incubation with goat anti-mouse IL-6 antibody (R & D systems) followed biotinylated anti-goat IgG (Vector Laboratories, Burl ingame, CA), before treating with StreptABComplex/HRP (biotinylated horseradish peroxidase and streptavidin; Dako Corporation, CA) for 30 min. […]
The stained sections were examined by light microscopy at 20× magnification and images were captured digitally with a Sony Hyper HAD colour video camera (Sony, Tokyo, Japan). Stain intensity was analysed using a Leica Q500 MC image processing and analysis system (Leica, Cambridge, UK) and semi-quantitated in arbitrary image analysis units as the average intensity of 15 sequential fields across the skin section for each of 3 mice per treatment group. […]

In the case of `COc1ccc(C2=Cc3ccc(O)cc3OC2)cc1OC` [Cpd. 18, 7-Hydroxy-3′,4′-dimethoxyisoflav-3-ene], the “UVB-induced levels of IL-6 immunopositivity in the epidermis” value is listed as “significantly reduced”.
